Laboratory results published in publication PMC6364417, “Kinase inhibitor library screening identifies synergistic drug combinations effective in sensitive and resistant melanoma cells” (Journal of Experimental & Clinical Cancer Research : CR, 2019).

Legend:
Assay in all cases: Kinase inhibitor library screening, PrestoBlue cell viability, 1 or 10 μM, 72 h
501Mel cells (parental) = conditions: 72 h; for Cell viability in kinase inhibitor library screening, 501Mel Parental, 1μΜ / Cell viability in kinase inhibitor library screening, 501Mel Parental, 10μΜ: in %
Description: (§1) After 72 h of treatment, cell viability was assessed using the PrestoBlue Cell Viability Reagent (ThermoFisher Scientific). Measurements were performed with the CLARIOstar Monochromator microplate reader (BMG Labtech).
(§2) Kinase inhibitor library screening. […] Each cell line was treated in its sensitive form (parental), and also as 2 resistant derivatives, which were made resistant to either Vemurafenib (XP) or Dabrafenib (GP). Drugs were added at 2 different concentrations, 1 and 10 μM, for 72 h and cell viability was assessed using the PrestoBlue Cell Viability assay. Results are depicted as % viability compared to untreated cells. Each cell line was analyzed at least in duplicate. […] (XLSX 95 kb)

IGR37 cells (parental) = conditions: for Cell viability in kinase inhibitor library screening, IGR37 Parental, 1μΜ / Cell viability in kinase inhibitor library screening, IGR37 Parental, 10μΜ: 72 h, in %
Description: as §1, §2

A375 cells (parental) = conditions: for Cell viability in kinase inhibitor library screening, A375 Parental, 10μΜ / Cell viability in kinase inhibitor library screening, A375 Parental, 1μΜ: 72 h
Description: as §1, §2

[1] = test system: IGR37-XP cells (Vemurafenib-resistant); conditions: for Cell viability in kinase inhibitor library screening, IGR37 XP, 10μΜ / Cell viability in kinase inhibitor library screening, IGR37 XP, 1μΜ: 72 h; for Cell viability in kinase inhibitor library screening, IGR37 XP, 1μΜ: in %
Description: as §1, §2

[2] = test system: A375-XP cells (Vemurafenib-resistant); conditions: for Cell viability in kinase inhibitor library screening, A375 XP, 1μΜ / Cell viability in kinase inhibitor library screening, A375 XP, 10μΜ: 72 h
Description: as §1, §2

[3] = test system: A375-GP cells (Dabrafenib-resistant); conditions: for Cell viability in kinase inhibitor library screening, A375 GP, 1μΜ / Cell viability in kinase inhibitor library screening, A375 GP, 10μΜ: 72 h
Description: as §1, §2

[4] = test system: IGR37-GP cells (Dabrafenib-resistant); conditions: for Cell viability in kinase inhibitor library screening, IGR37 GP, 10μΜ / Cell viability in kinase inhibitor library screening, IGR37 GP, 1μΜ: 72 h; for Cell viability in kinase inhibitor library screening, IGR37 GP, 1μΜ: in %
Description: as §1, §2

[5] = test system: 501Mel-GP cells (Dabrafenib-resistant); conditions: 72 h; for Cell viability in kinase inhibitor library screening, 501Mel GP, 1μΜ / Cell viability in kinase inhibitor library screening, 501Mel GP, 10μΜ: in %
Description: as §1, §2

[6] = test system: 501Mel-XP cells (Vemurafenib-resistant); conditions: 72 h; for Cell viability in kinase inhibitor library screening, 501Mel XP, 1μΜ / Cell viability in kinase inhibitor library screening, 501Mel XP, 10μΜ: in %
Description: as §1, §2

## O=C1NC(=O)/C(=C/c2ccc(-c3ccc(F)cc3O)o2)S1 [AS-252424]
501Mel cells (parental)
  Cell viability in kinase inhibitor library screening, 501Mel Parental, 1μΜ: 112.3
  Cell viability in kinase inhibitor library screening, 501Mel Parental, 10μΜ: 97.9
IGR37 cells (parental)
  Cell viability in kinase inhibitor library screening, IGR37 Parental, 1μΜ: 103.0
  Cell viability in kinase inhibitor library screening, IGR37 Parental, 10μΜ: 94.5
A375 cells (parental)
  Cell viability in kinase inhibitor library screening, A375 Parental, 10μΜ: 82.9
  Cell viability in kinase inhibitor library screening, A375 Parental, 1μΜ: 107.2
[1]
  Cell viability in kinase inhibitor library screening, IGR37 XP, 10μΜ: 42.3%
  Cell viability in kinase inhibitor library screening, IGR37 XP, 1μΜ: 93.7
[2]
  Cell viability in kinase inhibitor library screening, A375 XP, 1μΜ: 115.1
  Cell viability in kinase inhibitor library screening, A375 XP, 10μΜ: 96.7
[3]
  Cell viability in kinase inhibitor library screening, A375 GP, 1μΜ: 107.9
  Cell viability in kinase inhibitor library screening, A375 GP, 10μΜ: 90.3
[4]
  Cell viability in kinase inhibitor library screening, IGR37 GP, 10μΜ: 75.1%
[5]
  Cell viability in kinase inhibitor library screening, 501Mel GP, 1μΜ: 105.9
  Cell viability in kinase inhibitor library screening, 501Mel GP, 10μΜ: 85.7
[6]
  Cell viability in kinase inhibitor library screening, 501Mel XP, 1μΜ: 109.3
  Cell viability in kinase inhibitor library screening, 501Mel XP, 10μΜ: 84.7

## O=C1NC(=O)/C(=C/c2ccc3c(c2)OC(F)(F)O3)S1 [AS-604850]
501Mel cells (parental)
  Cell viability in kinase inhibitor library screening, 501Mel Parental, 10μΜ: 104.4
IGR37 cells (parental)
  Cell viability in kinase inhibitor library screening, IGR37 Parental, 10μΜ: 108.6
A375 cells (parental)
  Cell viability in kinase inhibitor library screening, A375 Parental, 10μΜ: 95.5
  Cell viability in kinase inhibitor library screening, A375 Parental, 1μΜ: 104.7
[1]
  Cell viability in kinase inhibitor library screening, IGR37 XP, 10μΜ: 80.4%
  Cell viability in kinase inhibitor library screening, IGR37 XP, 1μΜ: 91.9
[2]
  Cell viability in kinase inhibitor library screening, A375 XP, 1μΜ: 109.0
  Cell viability in kinase inhibitor library screening, A375 XP, 10μΜ: 106.1
[3]
  Cell viability in kinase inhibitor library screening, A375 GP, 10μΜ: 98.8
[4]
  Cell viability in kinase inhibitor library screening, IGR37 GP, 10μΜ: 98%
  Cell viability in kinase inhibitor library screening, IGR37 GP, 1μΜ: 103.0
[5]
  Cell viability in kinase inhibitor library screening, 501Mel GP, 10μΜ: 91.8
[6]
  Cell viability in kinase inhibitor library screening, 501Mel XP, 10μΜ: 90.1

## O=C1NC(=O)/C(=C\c2ccc3nccnc3c2)S1 [AS-605240]
501Mel cells (parental)
  Cell viability in kinase inhibitor library screening, 501Mel Parental, 1μΜ: 104.7
  Cell viability in kinase inhibitor library screening, 501Mel Parental, 10μΜ: 92.3
IGR37 cells (parental)
  Cell viability in kinase inhibitor library screening, IGR37 Parental, 1μΜ: 99.2
  Cell viability in kinase inhibitor library screening, IGR37 Parental, 10μΜ: 94.0
A375 cells (parental)
  Cell viability in kinase inhibitor library screening, A375 Parental, 10μΜ: 76.5
  Cell viability in kinase inhibitor library screening, A375 Parental, 1μΜ: 99.1
[1]
  Cell viability in kinase inhibitor library screening, IGR37 XP, 1μΜ: 98.2
[2]
  Cell viability in kinase inhibitor library screening, A375 XP, 10μΜ: 81.1
[3]
  Cell viability in kinase inhibitor library screening, A375 GP, 1μΜ: 97.7
  Cell viability in kinase inhibitor library screening, A375 GP, 10μΜ: 71.1
[4]
  Cell viability in kinase inhibitor library screening, IGR37 GP, 10μΜ: 70.4%
  Cell viability in kinase inhibitor library screening, IGR37 GP, 1μΜ: 91.2
[5]
  Cell viability in kinase inhibitor library screening, 501Mel GP, 1μΜ: 107.4
  Cell viability in kinase inhibitor library screening, 501Mel GP, 10μΜ: 73.8
[6]
  Cell viability in kinase inhibitor library screening, 501Mel XP, 1μΜ: 98.5
  Cell viability in kinase inhibitor library screening, 501Mel XP, 10μΜ: 72.2

## C=CC(=O)Nc1ccc2ncnc(Nc3ccc(OCc4cccc(F)c4)c(Cl)c3)c2c1 [AST-1306]
501Mel cells (parental); Homo sapiens, read-out: cell viability, 501Mel Parental, 1μΜ
  viability at 1 µM: 94.1%
501Mel cells (parental); Homo sapiens, read-out: cell viability, 501Mel Parental, 10μΜ
  viability at 10 µM: 3%
IGR37 cells (parental); Homo sapiens, IGR-37, 72 h, read-out: cell viability, IGR37 Parental, 1μΜ
  viability at 1 µM: 99.8%
IGR37 cells (parental); Homo sapiens, IGR-37, 72 h, read-out: cell viability, IGR37 Parental, 10μΜ
  viability at 10 µM: 1.8%
A375 cells (parental); Homo sapiens, A-375, 72 h, read-out: cell viability, A375 Parental, 1μΜ
  viability at 1 µM: 95%
A375 cells (parental); Homo sapiens, A-375, 72 h, read-out: cell viability, A375 Parental, 10μΜ
  viability at 10 µM: 2.9%
[1]; Homo sapiens, IGR-37, 72 h, read-out: cell viability, IGR37 XP, 1μΜ
  viability at 1 µM: 72.8%
[1]; Homo sapiens, IGR-37, 72 h, read-out: cell viability, IGR37 XP, 10μΜ
  viability at 10 µM: 1.1%
[2]; Homo sapiens, A-375, 72 h, read-out: cell viability, A375 XP, 1μΜ
  viability at 1 µM: 90.9%
[2]; Homo sapiens, A-375, 72 h, read-out: cell viability, A375 XP, 10μΜ
  viability at 10 µM: 0.8%
[3]; Homo sapiens, A-375, 72 h, read-out: cell viability, A375 GP, 1μΜ
  viability at 1 µM: 85.4%
[3]; Homo sapiens, A-375, 72 h, read-out: cell viability, A375 GP, 10μΜ
  viability at 10 µM: 0.6%
[4]; Homo sapiens, IGR-37, 72 h, read-out: cell viability, IGR37 GP, 1μΜ
  viability at 1 µM: 87.4%
[4]; Homo sapiens, IGR-37, 72 h, read-out: cell viability, IGR37 GP, 10μΜ
  viability at 10 µM: 2.2%
[5]; Homo sapiens, read-out: cell viability, 501Mel GP, 1μΜ
  viability at 1 µM: 103%
[5]; Homo sapiens, read-out: cell viability, 501Mel GP, 10μΜ
  viability at 10 µM: 2.3%
[6]; Homo sapiens, read-out: cell viability, 501Mel XP, 1μΜ
  viability at 1 µM: 89.2%
[6]; Homo sapiens, read-out: cell viability, 501Mel XP, 10μΜ
  viability at 10 µM: -0.162%
